# Tests used:
# Experiment in all cases: cells
# CAPAN-1 = type: functional, cell-based, Homo sapiens; details: Homo sapiens, CAPAN-1;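 note: growth suppression of CAPAN-1 cells, read out by a cell viability assay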
# Description: SANGER: Inhibition of human CAPAN-1 cell growth in a cell viability assay.
# NCI-H446 = type: functional, cell-based; details: Homo sapiens;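 note: growth inhibition of NCI-H446 cells determined by a cell viability assay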
# Description: SANGER: Inhibition of human NCI-H446 cell growth in a cell viability assay.
# COR-L105 = type: functional, cell-based, Homo sapiens; details: Homo sapiens, COR-L105;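 note: cell growth inhibition determined with a viability assay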
# Description: SANGER: Inhibition of human COR-L105 cell growth in a cell viability assay.
# EW-13 = type: functional, cell-based; details: Homo sapiens;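 note: growth inhibition of EW-13 cells, read out with a cell viability assay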
# Description: SANGER: Inhibition of human EW-13 cell growth in a cell viability assay.
# HT-1376 = type: functional, cell-based, Homo sapiens; details: Homo sapiens, HT-1376
# Description: SANGER: Inhibition of human HT-1376 cell growth in a cell viability assay.
# SNU-387 = type: functional, cell-based, Homo sapiens; details: Homo sapiens, SNU-387
# Description: SANGER: Inhibition of human SNU-387 cell growth in a cell viability assay.
# KYSE-150 cell line = type: functional, cell-based, Homo sapiens; details: Homo sapiens, KYSE-150;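 note: growth inhibition of human KYSE-150 cells, read out with a cell viability assay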
# Description: SANGER: Inhibition of human KYSE-150 cell growth in a cell viability assay.
# A-375 = type: functional, cell-based, Homo sapiens; details: Homo sapiens, A-375;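 note: growth inhibition of A375 cells, read out with a cell viability assay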
# Description: SANGER: Inhibition of human A375 cell growth in a cell viability assay.
# SW780 = type: functional, cell-based, Homo sapiens; details: Homo sapiens, SW780;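 note: growth inhibition of the cells, read out with a cell viability assay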
# Description: SANGER: Inhibition of human SW780 cell growth in a cell viability assay.
# KURAMOCHI = type: functional, cell-based; details: Homo sapiens;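 note: growth inhibition of KURAMOCHI cells, read out with a cell viability assay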
# Description: SANGER: Inhibition of human KURAMOCHI cell growth in a cell viability assay.
# SW1573 = type: functional, cell-based, Homo sapiens; details: Homo sapiens, SW1573;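 note: growth inhibition of SW1573 cells, read out with a cell viability assay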
# Description: SANGER: Inhibition of human SW1573 cell growth in a cell viability assay.
# ES8 = type: functional, cell-based, Homo sapiens; details: Homo sapiens, ES8;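 note: growth inhibition of human ES8 cells, read out with a cell viability assay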
# Description: SANGER: Inhibition of human ES8 cell growth in a cell viability assay.
# DMS-114 = type: functional, cell-based, Homo sapiens; details: Homo sapiens, DMS-114
# SNU-449 = type: functional, cell-based, Homo sapiens; details: Homo sapiens, SNU-449
# Description: SANGER: Inhibition of human SNU-449 cell growth in a cell viability assay.
# A673 = type: functional, cell-based, Homo sapiens; details: Homo sapiens, A673;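 note: growth inhibition of human A673 cells, read out through a cell viability assay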
# Description: SANGER: Inhibition of human A673 cell growth in a cell viability assay.
# AM-38 = type: functional, cell-based, Homo sapiens; details: Homo sapiens, AM-38;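 note: growth inhibition of AM-38 cells of human origin, read out by a cell viability assay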
# Description: SANGER: Inhibition of human AM-38 cell growth in a cell viability assay.
# OVCAR-8 = type: functional, cell-based, Homo sapiens; details: Homo sapiens, OVCAR-8;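 note: growth inhibition of human OVCAR-8 cells, read out by a cell viability assay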
# Description: SANGER: Inhibition of human OVCAR-8 cell growth in a cell viability assay.
# A2058 = type: functional, cell-based; details: Homo sapiens;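 note: reduction of A2058 cell growth, read out with a viability assay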
# Description: SANGER: Inhibition of human A2058 cell growth in a cell viability assay.
# MKN-28 = type: functional, cell-based, Homo sapiens; details: Homo sapiens, MKN-28;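 note: cell viability assay read-out, IC50 reflects suppression of growth of human MKN-28 cells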
# Description: SANGER: Inhibition of human MKN28 cell growth in a cell viability assay.
# BXPC-3 = type: functional, cell-based, Homo sapiens; details: Homo sapiens, BXPC-3;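 note: growth inhibition of human BxPC-3 cells, read out by a cell viability assay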
# Description: SANGER: Inhibition of human BxPC-3 cell growth in a cell viability assay.
# DoTc2-4510 = type: functional, cell-based, Homo sapiens; details: Homo sapiens, DoTc2-4510
# HCC1806 = type: functional, cell-based, Homo sapiens; details: Homo sapiens, HCC1806;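 note: growth inhibition of the cancer cell line, determined with a cell viability assay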
# Description: SANGER: Inhibition of human HCC1806 cell growth in a cell viability assay.
# SW684 = type: functional, cell-based, Homo sapiens; details: Homo sapiens, SW684;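 note: growth inhibition of human SW684 cells, measured by a cell viability assay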
# Description: SANGER: Inhibition of human SW684 cell growth in a cell viability assay.
# AN3-CA = type: functional, cell-based; details: Homo sapiens;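 note: growth inhibition of human AN3-CA cells measured by a cell viability assay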
# Description: SANGER: Inhibition of human AN3-CA cell growth in a cell viability assay.
# SJSA-1 = type: functional, cell-based, Homo sapiens; details: Homo sapiens, SJSA-1;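 note: growth inhibition of human SJSA-1 cells, read out through a cell viability measurement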
# Description: SANGER: Inhibition of human SJSA-1 cell growth in a cell viability assay.
# NCI-H1792 = type: functional, cell-based, Homo sapiens; details: Homo sapiens, NCI-H1792;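 note: growth inhibition of human NCI-H1792 cells, read out as cell viability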
# Description: SANGER: Inhibition of human NCI-H1792 cell growth in a cell viability assay.
# TE-5 = type: functional, cell-based, Homo sapiens; details: Homo sapiens, TE-5;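 note: inhibition of cell growth, read out by a cell viability assay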
# Description: SANGER: Inhibition of human TE-5 cell growth in a cell viability assay.
# EW-3 = type: functional, cell-based; details: Homo sapiens;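 note: cell viability assay read-out, IC50 reflects inhibition of growth of the EW-3 cells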
# Description: SANGER: Inhibition of human EW-3 cell growth in a cell viability assay.
# C3A = type: functional, cell-based, Homo sapiens; details: Homo sapiens, C3A;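 note: growth inhibition of C3A human cells, quantified with a cell viability readout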
# Description: SANGER: Inhibition of human C3A cell growth in a cell viability assay.
# CAL-33 = type: functional, cell-based, Homo sapiens; details: Homo sapiens, CAL-33;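 note: growth inhibition of CAL-33 cells, read out with a cell viability assay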
# Description: SANGER: Inhibition of human CAL-33 cell growth in a cell viability assay.
# UMC-11 = type: functional, cell-based, Homo sapiens; details: Homo sapiens, UMC-11;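 note: growth inhibition of UMC-11 cells, read out with a cell viability assay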
# Description: SANGER: Inhibition of human UMC-11 cell growth in a cell viability assay.
# HCC1954 = type: functional, cell-based, Homo sapiens; details: Homo sapiens, HCC1954;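 note: growth inhibition of human HCC1954 cells, read out with a cell viability assay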
# Description: SANGER: Inhibition of human HCC1954 cell growth in a cell viability assay.
# COLO-800 = type: functional, cell-based, Homo sapiens; details: Homo sapiens, COLO-800;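 note: growth inhibition of COLO-800 cells, read out with a cell viability assay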
# Description: SANGER: Inhibition of human COLO-800 cell growth in a cell viability assay.
# NCI-H2122 = type: functional, cell-based, Homo sapiens; details: Homo sapiens, NCI-H2122;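 note: growth inhibition of the cells, read out with a cell viability assay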
# Description: SANGER: Inhibition of human NCI-H2122 cell growth in a cell viability assay.
# EC-GI-10 = type: functional, cell-based, Homo sapiens; details: Homo sapiens, EC-GI-10
# Description: SANGER: Inhibition of human EC-GI-10 cell growth in a cell viability assay.
# NCI-H1993 = type: functional, cell-based, Homo sapiens; details: Homo sapiens, NCI-H1993;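 note: growth inhibition of the cancer cell line, assessed with a cell viability assay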
# Description: SANGER: Inhibition of human NCI-H1993 cell growth in a cell viability assay.
# MCF7 = type: functional, cell-based, Homo sapiens; details: Homo sapiens, MCF7;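 note: growth inhibition of human MCF7 cells, read out with a cell viability assay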
# Description: SANGER: Inhibition of human MCF7 cell growth in a cell viability assay.
# 697 = type: functional, cell-based; details: Homo sapiens
# Description: SANGER: Inhibition of human 697 cell growth in a cell viability assay.
# GT3TKB = type: functional, cell-based, Homo sapiens; details: Homo sapiens, GT3TKB;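 note: growth inhibition of the cell line, read out with a cell viability assay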
# Description: SANGER: Inhibition of human GT3TKB cell growth in a cell viability assay.
# KY821 = type: functional, cell-based; details: Homo sapiens;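 note: growth inhibition of human KY821 cells, read out by a cell viability assay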
# Description: SANGER: Inhibition of human KY821 cell growth in a cell viability assay.
# NCI-H2347 = type: functional, cell-based, Homo sapiens; details: Homo sapiens, NCI-H2347;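 note: growth inhibition of the cell line, read out with a cell viability assay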
# Description: SANGER: Inhibition of human NCI-H2347 cell growth in a cell viability assay.
# CAL-39 = type: functional, cell-based, Homo sapiens; details: Homo sapiens, CAL-39;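 note: cell viability assay measuring growth inhibition of CAL-39 cells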
# Description: SANGER: Inhibition of human CAL-39 cell growth in a cell viability assay.
# EOL1 = type: functional, cell-based; details: Homo sapiens;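 note: growth inhibition of EoL-1 cells, read out by a cell viability assay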
# Description: SANGER: Inhibition of human EoL-1-cell cell growth in a cell viability assay.
# LU-134-A = type: functional, cell-based; details: Homo sapiens
# Description: SANGER: Inhibition of human LU-134-A cell growth in a cell viability assay.
# LAMA-84 = type: functional, cell-based; details: Homo sapiens;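 note: growth inhibition of LAMA-84 cells, read out with a cell viability assay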
# Description: SANGER: Inhibition of human LAMA-84 cell growth in a cell viability assay.
# SK-N-DZ = type: functional, cell-based, Homo sapiens; details: Homo sapiens, SK-N-DZ;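 note: growth inhibition of the cancer cell line, read out through a viability assay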
# Description: SANGER: Inhibition of human SK-N-DZ cell growth in a cell viability assay.
# TGBC24TKB = type: functional, cell-based, Homo sapiens; details: Homo sapiens, TGBC24TKB;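 note: growth inhibition of human TGBC24TKB cells, read out with a cell viability assay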
# Description: SANGER: Inhibition of human TGBC24TKB cell growth in a cell viability assay.
# NCI-H1299 = type: functional, cell-based, Homo sapiens; details: Homo sapiens, NCI-H1299;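 note: growth inhibition of human NCI-H1299 cells, read out by a cell viability assay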
# Description: SANGER: Inhibition of human NCI-H1299 cell growth in a cell viability assay.
# Calu-3 = type: functional, cell-based, Homo sapiens; details: Homo sapiens, Calu-3;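 note: growth inhibition of human Calu-3 cells, determined with a cell viability assay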
# Description: SANGER: Inhibition of human Calu-3 cell growth in a cell viability assay.
smiles,measurement,setting,value
CC(=O)O[C@@]12CO[C@@H]1C[C@H](O)[C@@]1(C)C(=O)[C@H](O)C3=C(C)[C@@H](OC(=O)[C@H](O)[C@@H](NC(=O)OC(C)(C)C)c4ccccc4)C[C@@](O)([C@@H](OC(=O)c4ccccc4)[C@H]21)C3(C)C [DOCETAXEL],IC50,CAPAN-1,> 10 nM
same,IC50,NCI-H446,2.43 nM
same,IC50,COR-L105,> 10 nM
same,IC50,EW-13,> 10 nM
same,IC50,HT-1376,> 10 nM
same,IC50,SNU-387,2.61 nM
same,IC50,KYSE-150 cell line,4.99 nM
same,IC50,A-375,1.21 nM
same,IC50,SW780,0.587 nM
same,IC50,KURAMOCHI,> 10 nM
same,IC50,SW1573,5.54 nM
same,IC50,ES8,0.26 nM
same,IC50,DMS-114,6.96 nM
same,IC50,SNU-449,> 10 nM
same,IC50,A673,2.35 nM
same,IC50,AM-38,> 10 nM
same,IC50,OVCAR-8,2.12 nM
same,IC50,A2058,0.544 nM
same,IC50,MKN-28,3.17 nM
same,IC50,BXPC-3,2.51 nM
same,IC50,DoTc2-4510,> 10 nM
same,IC50,HCC1806,1.18 nM
same,IC50,SW684,> 10 nM
same,IC50,AN3-CA,5.07 nM
same,IC50,SJSA-1,0.615 nM
same,IC50,NCI-H1792,1.04 nM
same,IC50,TE-5,1.06 nM
same,IC50,EW-3,0.745 nM
same,IC50,C3A,> 10 nM
same,IC50,CAL-33,1.04 nM
same,IC50,UMC-11,> 10 nM
same,IC50,HCC1954,> 10 nM
same,IC50,COLO-800,0.388 nM
same,IC50,NCI-H2122,1.84 nM
same,IC50,EC-GI-10,0.592 nM
same,IC50,NCI-H1993,> 10 nM
same,IC50,MCF7,1.61 nM
same,IC50,697,1.72 nM
same,IC50,GT3TKB,0.232 nM
same,IC50,KY821,5.51 nM
same,IC50,NCI-H2347,> 10 nM
same,IC50,CAL-39,1.63 nM
same,IC50,EOL1,1.73 nM
same,IC50,LU-134-A,> 10 nM
same,IC50,LAMA-84,> 10 nM
same,IC50,SK-N-DZ,9.83 nM
same,IC50,TGBC24TKB,7.81 nM
same,IC50,NCI-H1299,8.57 nM
same,IC50,Calu-3,> 10 nM
CN(Cc1cnc2nc(N)nc(N)c2n1)c1ccc(C(=O)N[C@@H](CCC(=O)O)C(=O)O)cc1 [METHOTREXATE],IC50,CAPAN-1,> 200 nM
same,IC50,NCI-H446,> 200 nM
same,IC50,COR-L105,> 200 nM
same,IC50,EW-13,72.3 nM
same,IC50,HT-1376,> 200 nM
same,IC50,SNU-387,> 200 nM
same,IC50,KYSE-150 cell line,115 nM
same,IC50,A-375,> 200 nM
same,IC50,SW780,116 nM
same,IC50,KURAMOCHI,> 200 nM
same,IC50,SW1573,> 200 nM
same,IC50,ES8,> 200 nM
same,IC50,DMS-114,> 200 nM
same,IC50,SNU-449,> 200 nM
same,IC50,A673,> 200 nM
same,IC50,AM-38,> 200 nM
same,IC50,OVCAR-8,> 200 nM
same,IC50,A2058,> 200 nM
same,IC50,MKN-28,> 200 nM
same,IC50,BXPC-3,> 200 nM
same,IC50,DoTc2-4510,> 200 nM
same,IC50,HCC1806,> 200 nM
same,IC50,SW684,> 200 nM
same,IC50,AN3-CA,> 200 nM
same,IC50,SJSA-1,> 200 nM
same,IC50,NCI-H1792,114 nM
same,IC50,TE-5,> 200 nM
same,IC50,C3A,> 200 nM
same,IC50,CAL-33,> 200 nM
same,IC50,UMC-11,> 200 nM
same,IC50,HCC1954,> 200 nM
same,IC50,COLO-800,124 nM
same,IC50,NCI-H2122,151 nM
same,IC50,EC-GI-10,> 200 nM
same,IC50,NCI-H1993,> 200 nM
same,IC50,MCF7,> 200 nM
same,IC50,697,12.6 nM
same,IC50,GT3TKB,> 200 nM
same,IC50,NCI-H2347,> 200 nM
same,IC50,CAL-39,> 200 nM
same,IC50,LU-134-A,88.7 nM
same,IC50,LAMA-84,12.4 nM
same,IC50,SK-N-DZ,> 200 nM
same,IC50,TGBC24TKB,> 200 nM
same,IC50,NCI-H1299,> 200 nM
same,IC50,Calu-3,> 200 nM
